Results from ChEMBL document CHEMBL1123432, “Methotrexate analogues. 28. Synthesis and biological evaluation of new gamma-monoamides of aminopterin and methotrexate” (J Med Chem, 1986).
Values joined by “and” are separate entries in the source; they are usually repeats but may differ in a detail not shown here. Equal entries are not always repeated.

Legend:
Homo sapiens [1] = species: Homo sapiens; test: Compound was tested for its inhibitory concentration against human leukemic lymphoblasts (CEM Cells) and a resistant subline (CEM / MTX); Mean of two assays; assay type: functional; conditions: CCRF-CEM
Homo sapiens [2] = species: Homo sapiens; test: Compound was tested for its inhibitory concentration against human leukemic lymphoblasts (CEM Cells); Mean of two assays; assay type: functional; conditions: CCRF-CEM
L1210 [3] = test: Compound was tested for its inhibitory concentration to inhibit the growth of wild type L1210 cells and a subline (L1210 / R81).; assay type: functional, cell-based; conditions: Mus musculus
L1210 [4] = test: Compound was tested for its inhibitory concentration to inhibit the growth of wild type L1210 cells.; assay type: functional, cell-based, Mus musculus
Mus musculus [5] = test: Increase in life span of mice with L1210 leukemia cells at a dose of 7.5 mg/kg in exp 2; assay type: functional
Mus musculus [6] = test: Increase in life span of mice with L1210 leukemia cells at a dose of 10 mg/kg in exp 2; assay type: functional
Mus musculus [7] = test: Increase in life span of mice with L1210 leukemia cells at a dose of 15 mg/kg in exp 2; assay type: functional
Mus musculus [8] = test: Median Survival days of mice infected with L1210 leukemia cells at dose 7.5 mg/kg relative to that of 10 days for control in expt 2; assay type: functional
Mus musculus [9] = test: Median Survival days of mice infected with L1210 leukemia cells at dose 10 mg/kg relative to that of 10 days for control in expt 2; assay type: functional
Mus musculus [10] = test: Median Survival days of mice infected with L1210 leukemia cells at dose 10 mg/kg relative to that of 9 days for control in expt 1; assay type: functional
Mus musculus [11] = test: Median Survival days of mice infected with L1210 leukemia cells at dose 15 mg/kg relative to that of 10 days for control in expt 2; assay type: functional
Mus musculus [12] = test: Median Survival days of mice infected with L1210 leukemia cells at dose 20 mg/kg relative to that of 9 days for control in expt 1; assay type: functional
Mus musculus [13] = species: Mus musculus; test: Compound was tested against weight change in mice with L1210 leukemia cells on 7 th Day at Dose 10 mg / kg; assay type: functional; conditions: at 10 mg/kg
Mus musculus [14] = species: Mus musculus; test: Compound was tested against weight change in mice with L1210 leukemia cells on 7 th Day at Dose 15 mg / kg; assay type: functional; conditions: at 15 mg/kg
[15] = biological target: T1, Dihydrofolate reductase (Mus musculus) (UniProt P00375); conditions: L1210
T1 sequence (whole entry): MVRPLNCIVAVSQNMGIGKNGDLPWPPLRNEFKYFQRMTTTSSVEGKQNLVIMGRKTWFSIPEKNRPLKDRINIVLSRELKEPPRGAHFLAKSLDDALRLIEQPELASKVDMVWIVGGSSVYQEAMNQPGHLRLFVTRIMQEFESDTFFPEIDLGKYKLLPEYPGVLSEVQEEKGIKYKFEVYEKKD
Description: Compound was tested for inhibition of the enzyme DiHydroFolate Reductase (DHFR) from murine L1210 leukemia cells

Dihydrofolate reductase [16] = biological target: T2, Dihydrofolate reductase (Mus musculus, UniProt P00375); test: biochemical
T2 sequence (P00375 whole entry): T1 sequence (whole entry)
Description: Compound was tested for its inhibitory concentration to inhibit the enzyme Dihydro Folate Reductase (DHFR) from murine L1210 leukemia cells.

Mus musculus [17] = species: Mus musculus; test: Compound was tested against weight change in mice with L1210 leukemia cells on 10 th Day at Dose 20 mg / kg; conditions: at 20 mg/kg
Mus musculus [18] = species: Mus musculus; test: Compound was tested against weight change in mice with L1210 leukemia cells on 10 th Day at Dose 7.5 mg / kg; conditions: at 7.5 mg/kg
Mus musculus [19] = test: Increase in life span of mice with L1210 leukemia cells at a dose of 80 mg/kg in expt 1; assay type: functional
Mus musculus [20] = test: Increase in life span of mice with L1210 leukemia cells at a dose of 60 mg/kg in expt 1; assay type: functional
Mus musculus [21] = test: Increase in life span of mice with L1210 leukemia cells at a dose of 100 mg/kg in expt 1; assay type: functional
Mus musculus [22] = test: Increase in life span of mice with L1210 leukemia cells at a dose of 40 mg/kg in expt 1; assay type: functional
Mus musculus [23] = test: Median Survival days of mice infected with L1210 leukemia cells at dose 80 mg/kg relative to that of 9 days for control in expt 2; assay type: functional
Mus musculus [24] = test: Median Survival days of mice infected with L1210 leukemia cells at dose 40 mg/kg relative to that of 9 days for control in expt 1; assay type: functional
Mus musculus [25] = test: Median Survival days of mice infected with L1210 leukemia cells at dose 60 mg/kg relative to that of 9 days for control in expt 2; assay type: functional
Mus musculus [26] = test: Median Survival days of mice infected with L1210 leukemia cells at dose 100 mg/kg relative to that of 9 days for control in expt 2; assay type: functional
Mus musculus [27] = test: Median Survival days of mice infected with L1210 leukemia cells at dose 80 mg/kg relative to that of 9 days for control in expt 1; assay type: functional
Mus musculus [28] = species: Mus musculus; test: Compound was tested against weight change in mice with L1210 leukemia cells on 7 th Day at Dose 100 mg / kg; assay type: functional; conditions: at 100 mg/kg
Mus musculus [29] = species: Mus musculus; test: Compound was tested against weight change in mice with L1210 leukemia cells on 10 th Day at Dose 80 mg / kg; conditions: at 80 mg/kg
Mus musculus [30] = species: Mus musculus; test: Compound was tested against weight change in mice with L1210 leukemia cells on 10 th Day at Dose 40 mg / kg; conditions: at 40 mg/kg
Mus musculus [31] = species: Mus musculus; test: Compound was tested against weight change in mice with L1210 leukemia cells on 10 th Day at Dose 60 mg / kg; conditions: at 60 mg/kg
L1210 [32] = test: Compound was tested for its inhibitory concentration to inhibit the growth of wild type L1210 cells and a subline ( L1210 / R81 ).; assay type: functional, cell-based; conditions: Mus musculus
Dihydrofolate reductase [33] = biological target: T2, Dihydrofolate reductase; test: Compound was tested for its inhibitory concentration to inhibit the enzyme Dihydro Folate Reductase ( DHFR ) from murine L1210 leukemia cells.; assay type: cell-based
Homo sapiens [34] = species: Homo sapiens; test: Compound was tested for its inhibitory concentration against human leukemic lymphoblasts (CEM Cells); assay type: functional; conditions: CCRF-CEM
Homo sapiens [35] = species: Homo sapiens; test: Compound was tested for its inhibitory concentration against human leukemic lymphoblasts (CEM Cells) and a resistant subline (CEM / MTX).; assay type: functional; conditions: CCRF-CEM
L1210 [36] = test: cells; conditions: Mus musculus
Description: Compound was tested for its inhibitory concentration to inhibit the growth of wild type L1210 cells; Range=0.01 to 0.03

Mus musculus [37] = test: Increase in life span of mice with L1210 leukemia cells at a dose of 80 mg/kg; Toxic; assay type: functional, organism-based; parameters: dose 80 mg/kg
Mus musculus [38] = test: Increase in life span of mice with L1210 leukemia cells at a dose of 50 mg/kg; assay type: functional
Mus musculus [39] = test: Increase in life span of mice with L1210 leukemia cells at a dose of 80 mg/kg; assay type: functional
Mus musculus [40] = test: Median Survival days of mice infected with L1210 leukemia cells at dose 50 mg/kg relative to that of 10 days for control; assay type: functional
Mus musculus [41] = test: Median Survival days of mice infected with L1210 leukemia cells at dose 70 mg/kg relative to that of 10 days for control; assay type: functional
Mus musculus [42] = test: Median Survival days of mice infected with L1210 leukemia cells at dose 70 mg/kg relative to that of 10 days for control; Toxic; assay type: functional, organism-based; parameters: dose 70 mg/kg
Mus musculus [43] = test: Median Survival days of mice infected with L1210 leukemia cells at dose 60 mg/kg relative to that of 10 days for control; assay type: functional
Mus musculus [44] = species: Mus musculus; test: Compound was tested against weight change in mice with L1210 leukemia cells on 10 th Day at Dose 70 mg / kg; conditions: at 70 mg/kg
Mus musculus [45] = species: Mus musculus; test: Compound was tested against weight change in mice with L1210 leukemia cells on 10 th Day at Dose 50 mg / kg; conditions: at 50 mg/kg

Nc1nc(N)c2nc(CNc3ccc(C(=O)NC(CCC(=O)Nc4ccccc4)C(=O)O)cc3)cnc2n1 (stereo not given) was tested, and the IC50 (Homo sapiens [1]) was 4.7 µM, the IC50 (Homo sapiens [2]) was 180 nM and the IC50 (L1210 [3]) was 10 µM. For the same compound, the IC50 (L1210 [4]; Mus musculus, L1210) was 3.5 nM, the IC50 (L1210 [4]; l1210) was 3.6 nM and the ILS at 7.5 mg/kg (Mus musculus [5]) was 30%. It also gave an ILS at 10 mg/kg (Mus musculus [6]) of 50%, an ILS at 15 mg/kg (Mus musculus [7]) of 30% and a Survival (Mus musculus [8]) of 13 days. The Survival (Mus musculus [9]) was 15 days, the Survival (Mus musculus [10]) was 12 days and the Survival (Mus musculus [11]) was 13 days. For the same compound, the Survival (Mus musculus [12]) was 12 days, the Weight change (Mus musculus [13]) was 17% and 6% and the Weight change (Mus musculus [14]) was 2%. It also gave an IC50/[E] [15] of 1.5, an IC50 (Dihydrofolate reductase [16]) of 60 nM and a Weight change (Mus musculus [17]) of 0%. For the same compound, the Weight change (Mus musculus [18]) was 4%.
With CN(Cc1cnc2nc(N)nc(N)c2n1)c1ccc(C(=O)NC(CCC(=O)Nc2ccc3c(c2)OCO3)C(=O)O)cc1 (stereo not given) the IC50 (L1210 [3]) was 25 µM, the IC50 (L1210 [4]; Mus musculus, L1210) was 2.9 nM and the ILS at 80 mg/kg (Mus musculus [19]) was 67%. For the same compound, the ILS at 60 mg/kg (Mus musculus [20]) was 56%, the ILS at 100 mg/kg (Mus musculus [21]) was 78% and the ILS at 40 mg/kg (Mus musculus [22]) was 78%. For the same compound, the Survival (Mus musculus [23]) was 16 days, the Survival (Mus musculus [24]) was 13 days and the Survival (Mus musculus [25]) was 14 days. The Survival (Mus musculus [26]) was 16 days, the Survival (Mus musculus [12]) was 11 days and the Survival (Mus musculus [27]) was 15 days. For the same compound, the Weight change (Mus musculus [28]) was 1%, the IC50/[E] [15] was 1.1 and the IC50 (Dihydrofolate reductase [16]) was 42 nM. For the same compound, the Weight change (Mus musculus [29]) was 6% and -5%, the Weight change (Mus musculus [17]) was 11% and the Weight change (Mus musculus [30]) was 10%. For the same compound, the Weight change (Mus musculus [31]) was 3%.
In the case of Nc1nc(N)c2nc(CNc3ccc(C(=O)NC(CCC(=O)Nc4ccc(O)c(O)c4)C(=O)O)cc3)cnc2n1 (stereo not given), the IC50 (L1210 [4]; l1210) is reported as 37 nM and 6 nM, the IC50 (L1210 [32]) is reported as 23 µM and the IC50 (Dihydrofolate reductase [33]) is reported as 57 nM.
CN(Cc1cnc2nc(N)nc(N)c2n1)c1ccc(C(=O)N[C@@H](CCC(=O)O)C(=O)O)cc1 [METHOTREXATE] gave an IC50 (Homo sapiens [34]) of 32 nM, an IC50 (Homo sapiens [35]) of 6.6 µM and an IC50 (L1210 [36]) of 30 nM.
Nc1nc(N)c2nc(CNc3ccc(C(=O)NC(CCC(=O)NCc4ccc(Cl)c(Cl)c4)C(=O)O)cc3)cnc2n1 (stereo not given) was tested, and the IC50 (L1210 [3]) was 32 µM, the IC50 (L1210 [4]; Mus musculus, L1210) was 46 nM and the IC50 (L1210 [4]; l1210) was 34 nM. The ILS (Mus musculus [37]) was “Toxic”, the ILS at 50 mg/kg (Mus musculus [38]) was 70% and the ILS at 80 mg/kg (Mus musculus [39]) was 50%. The Survival (Mus musculus [40]) was 15 days, the Survival (Mus musculus [41]) was 21 days and the Survival (Mus musculus [42]) was “Toxic”. It also gave a Survival (Mus musculus [43]) of 17 days, an IC50/[E] [15] of 3.3 and an IC50 (Dihydrofolate reductase [16]) of 130 nM. The Weight change (Mus musculus [44]) was -3%, the Weight change (Mus musculus [29]) was -16% and the Weight change (Mus musculus [45]) was 2%. It also gave a Weight change (Mus musculus [31]) of 0%.
